Results: ChEMBL document CHEMBL5712921, “Unlocking the Recovery Potential: JMJD3 Inhibition-Mediated SAPK/JNK Signaling Inactivation Supports Endogenous Oligodendrocyte-Lineage Commitment Post Mammalian Spinal Cord Injury” (Neurochem Res, 2021)
Active and inactive are the calls of the source.

Columns and labels:
[1] = molecular target: Lysine-specific demethylase 6B (Mus musculus) (UniProt Q5NCY0); assay: Inhibition of JMJD3 in mouse C17.2 cells at 20 uM for 3 hrs; type: cell-based
[2] = molecular target: Lysine-specific demethylase 6B (Mus musculus) (UniProt Q5NCY0); assay: […] of JMJD3 in mouse C17.2 cells at 10 uM for 3 hrs; type: cell-based
[3] = molecular target: Lysine-specific demethylase 6B (Mus musculus) (UniProt Q5NCY0); assay: Inhibition of JMJD3 in mouse Neural Progenitor cell assessed as enhanced Olig2 expression at 10 uM by immunofluorescent staining; type: cell-based
[4] = molecular target: Lysine-specific demethylase 6B (Mus musculus) (UniProt Q5NCY0); assay: Inhibition of JMJD3 in mouse C17.2 cell assessed as Olig2 expression at 10 uM by immunoblot analysis; type: cell-based
Mus musculus [5] = organism: Mus musculus; assay: […] of phosphorylated c-Jun at ser63 residue in SCI mouse model; type: functional, organism-based
Mus musculus [6] = assay: In vivo inhibition of JMJD3 in SCI mouse model assessed as upregulation of H3K27me3 expression administered at 100 mg/kg, ip for 5 days followed by subcutaneous administration for 7 days by immunoblot analysis; type: functional, organism-based; details: time 12.0 day
[7] = molecular target: Lysine-specific demethylase 6B (Mus musculus) (UniProt Q5NCY0); assay: Inhibition of JMJD3 in mouse Neural Progenitor cell assessed as Olig2 expression at 10 uM by immunoblot analysis; type: cell-based
Mus musculus [8] = assay: Remyelination activity of SCI mouse model assessed as olig2 positive tube like structure administered at 100 mg/kg, ip for 5 days followed by subcutaneous administration for 7 days by immunohistochemical analysis; details: time 12.0 day
Mus musculus [9] = assay: In vivo inhibition of JMJD3 in SCI mouse model assessed as upregulation of Olig2 expression administered at 100 mg/kg, ip for 5 days followed by subcutaneous administration for 7 days by immunoblot analysis; type: functional, organism-based; details: time 12.0 day
[10] = molecular target: Lysine-specific demethylase 6B (Mus musculus) (UniProt Q5NCY0); assay: Inhibition of JMJD3 in mouse C17.2 cell assessed as increased number of olig2 positive cell at 10 uM by Hoechst staining analysis; type: cell-based
[11] = molecular target: Lysine-specific demethylase 6B (Mus musculus) (UniProt Q5NCY0); assay: Inhibition of JMJD3 in mouse C17.2 cell assessed as decreased number of GFAP positive cell at 10 uM by Hoechst staining analysis; type: cell-based

Lysine-specific demethylase 6B (Mus musculus), sequence (Q5NCY0 whole entry): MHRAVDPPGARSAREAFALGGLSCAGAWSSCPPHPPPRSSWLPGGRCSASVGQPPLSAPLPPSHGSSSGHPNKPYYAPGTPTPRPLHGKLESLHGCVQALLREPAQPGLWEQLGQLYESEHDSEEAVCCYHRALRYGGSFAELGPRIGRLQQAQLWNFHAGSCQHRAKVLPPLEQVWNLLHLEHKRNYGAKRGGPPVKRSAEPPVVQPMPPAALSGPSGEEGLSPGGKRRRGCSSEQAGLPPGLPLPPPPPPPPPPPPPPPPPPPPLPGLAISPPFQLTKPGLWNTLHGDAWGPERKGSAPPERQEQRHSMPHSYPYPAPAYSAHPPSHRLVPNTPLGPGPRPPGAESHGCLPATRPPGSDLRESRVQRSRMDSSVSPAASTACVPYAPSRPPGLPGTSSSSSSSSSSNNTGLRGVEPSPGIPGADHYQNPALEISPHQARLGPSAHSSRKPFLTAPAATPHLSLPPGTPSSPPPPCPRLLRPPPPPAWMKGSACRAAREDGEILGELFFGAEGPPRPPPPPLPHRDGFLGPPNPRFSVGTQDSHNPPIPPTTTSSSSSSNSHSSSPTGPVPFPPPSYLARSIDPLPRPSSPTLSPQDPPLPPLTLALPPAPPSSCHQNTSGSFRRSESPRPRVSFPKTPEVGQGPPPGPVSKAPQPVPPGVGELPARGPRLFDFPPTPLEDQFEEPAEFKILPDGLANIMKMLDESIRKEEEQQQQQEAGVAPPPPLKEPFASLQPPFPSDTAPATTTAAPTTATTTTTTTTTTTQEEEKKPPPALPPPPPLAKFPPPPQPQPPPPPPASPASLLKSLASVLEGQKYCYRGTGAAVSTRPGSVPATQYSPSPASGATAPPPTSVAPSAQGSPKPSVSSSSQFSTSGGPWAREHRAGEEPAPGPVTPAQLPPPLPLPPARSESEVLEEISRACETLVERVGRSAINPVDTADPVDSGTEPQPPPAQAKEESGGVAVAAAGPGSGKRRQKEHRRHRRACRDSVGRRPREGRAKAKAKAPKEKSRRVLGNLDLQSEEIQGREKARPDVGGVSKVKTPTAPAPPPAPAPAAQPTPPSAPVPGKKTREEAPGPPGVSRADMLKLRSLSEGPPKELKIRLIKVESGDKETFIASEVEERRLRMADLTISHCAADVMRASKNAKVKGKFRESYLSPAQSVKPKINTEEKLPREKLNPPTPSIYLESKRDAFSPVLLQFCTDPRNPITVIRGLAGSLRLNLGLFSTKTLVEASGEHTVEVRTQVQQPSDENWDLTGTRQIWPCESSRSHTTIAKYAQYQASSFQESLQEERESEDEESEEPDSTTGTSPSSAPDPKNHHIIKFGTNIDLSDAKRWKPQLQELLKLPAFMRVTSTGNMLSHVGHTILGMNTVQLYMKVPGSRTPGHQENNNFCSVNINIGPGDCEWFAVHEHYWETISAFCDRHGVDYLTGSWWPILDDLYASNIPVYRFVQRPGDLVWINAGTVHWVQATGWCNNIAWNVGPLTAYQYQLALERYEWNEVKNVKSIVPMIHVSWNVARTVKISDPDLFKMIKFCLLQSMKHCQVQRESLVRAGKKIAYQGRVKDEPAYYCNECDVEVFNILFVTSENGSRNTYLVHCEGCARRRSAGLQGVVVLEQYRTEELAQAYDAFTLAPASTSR

O=C1c2ccccc2-c2n[nH]c3cccc1c23
active: inhibition [1]

CC[C@]1(O)C[C@@H]2CN(CCc3c([nH]c4ccccc34)[C@@](C(=O)OC)(c3cc4c(cc3OC)N(C)[C@H]3[C@@](O)(C(=O)OC)[C@H](OC(C)=O)[C@]5(CC)C=CCN6CC[C@]43[C@@H]65)C2)C1
active: Activity [2]

CCOC(=O)CCNc1cc(N2CCc3ccccc3CC2)nc(-c2ccccn2)n1
active: inhibition [3] | inhibition [4] | Activity (Mus musculus [5]) | inhibition (Mus musculus [6]) | inhibition [7] | Activity (Mus musculus [8]) | inhibition (Mus musculus [9]) | inhibition [10] | inhibition [11]
